According to article PMC11466185, “Mechanisms and efficacy of small molecule latency-promoting agents to inhibit HIV reactivation ex vivo” (JCI Insight, 2024):
Where “and” joins values, the source holds several entries; their conditions need not be identical. Identical values can stand only once. Like-named read-outs stand apart in the source and are kept apart here.

Tests used:
PBMCs [1] = type: cell-based, human; conditions: 6 days after αCD3/28 activation, each row one participant
Protocol: (§1) Next, we evaluated the ability of the candidate LPAs to sustain the inhibitory effects during a prolonged ex vivo culture. To this end, PBMCs were cultured in the presence of individual drugs in DMSO or in DMSO alone as control, activated (anti-CD3/CD28), and harvested after 6 days. […] However, we decided to test the drug on day 6 because extra cells were available from some study participants.
(§2) For quantification of cell-associated HIV transcripts, PBMCs were harvested either after 24 hours or after 6 days. The cell viabilities were measured by trypan blue staining; then the cells were pelleted by centrifuging at 300g for 6 minutes and stored at –80°C. For quantification of virion-associated HIV RNA, cell culture supernatant was collected from 6 × 10^6 PBMCs that were treated and activated for 6 days as described above. Residual cells and cellular debris were subsequently removed from the supernatant by differential centrifugation (300g for 6 minutes, then 20,000g for 10 minutes), and the supernatant was stored at –80°C.
A) After six days, the viability was measured by trypan blue staining and then normalized to the levels of the activated DMSO (% of activated DMSO). Bars indicate medians and different colors indicate individual study participants. B-F) Each drug was tested in PBMCs from at least six ART-suppressed study participants (except for KRIBB11, n=5) and the PBMCs were aliquoted into wells at 6x10^6 cells/well. After activation, the cells were cultured with antiretrovirals in the presence of individual drugs in DMSO or DMSO alone as control. After six days, total RNA was extracted and the progression through different stages of HIV transcription was (1 picture or pasted object on this page, not shown here)

[2] = test system: HIV transcripts (TAR, LLTR, Pol, PolyA, TatRev); assay: Cell-associated HIV transcripts (RT-ddPCR) 6 days after anti-CD3/CD28 activation of PBMCs from ART-suppressed PWH; type: cell-based; conditions: DMSO+CD3/28 = 1, Fig 4B, C and D
Protocol: as §1
Each drug was tested in PBMCs from at least 6 ART-suppressed study participants (except for KRIBB11, n = 5). PBMCs were aliquoted into wells at 6 × 10^6 cells/well. After activation, the cells were cultured with antiretrovirals in the presence of individual drugs in DMSO or DMSO alone as control. All conditions were tested in the presence of CD3/28 T cell–activating beads, except for the unactivated DMSO condition. After 6 days, total cellular RNA was extracted, and the progression through different stages of HIV transcription was quantified by measuring the levels of initiated (TAR), 5′ elongated (LLTR), midtranscribed/unspliced (Pol), completed (PolyA), and multiply spliced (TatRev) HIV transcripts. (A) The levels of all HIV transcripts were normalized to 1 μg of total cellular RNA and expressed as a percentage of the activated DMSO control (% of activated DMSO). Medians are shown as well as the individual values per study participant in different colors. (B–D) The effect of each drug on HIV transcriptional progression after activation was analyzed by the ratio of one HIV transcript to another. Ratios are independent of HIV infection frequency or normalization to cell numbers. Shown are the proportion of (B) all HIV transcripts that are elongated (LLTR/TAR), (C) elongated HIV transcripts that are completed (PolyA/LLTR), and (D) completed transcripts that are multiply spliced (TatRev/PolyA). Medians and IQR are presented, along with the individual values per study participant in different colors. P values were calculated using Wilcoxon’s signed-rank test: *P < 0.05.
PBMCs were isolated from fresh venous blood from 16 ART-suppressed HIV-infected study participants using Ficoll density gradient centrifugation. The cells were seeded at 6 × 10^6 cells/well and cultured with antiretrovirals (nevirapine and indinavir) to prevent new infection. On the next day, PBMCs were activated with anti-CD3/CD28–coated beads (Invitrogen) in the presence of 20 U/mL IL-2 and individual drugs in DMSO or DMSO alone as a control. Since we were limited in the PBMC yield per study participant, different study participants were used for different experiments (such as the initial screen, dose response, different time points, and studies in activated vs. unstimulated cells). In addition, the yields of PBMCs were sometimes insufficient to test all drugs for a given question or experiment.
as §2
Total cellular DNA and RNA were extracted in parallel using Trireagent (Molecular Research Center) according to the manufacturer’s instructions, except for study participants 2147 and 2461 (Figure 4), for whom DNA and RNA were extracted using the QIAGEN AllPrep DNA/RNA/miRNA Universal Kit with on-column DNase I treatment of the RNA and the manufacturer’s modification to enhance recovery of short transcripts.

PBMCs [3] = assay: Cell viability by trypan blue staining after 24 hours; type: cell-based, human
Procedure, shortened: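 PBMCs from ART-suppressed donors at 6 × 10^6 cells/well were activated with CD3/28 beads and cultured with antiretrovirals plus drug in DMSO. Viability counted by trypan blue after 24 hours. Values were normalized to the activated DMSO control.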

SMILES: C=CCNC1=C2C[C@@H](C)C[C@H](OC)[C@H](O)[C@@H](C)/C=C(\C)[C@H](OC(N)=O)[C@@H](OC)/C=C\C=C(/C)C(=O)NC(=CC1=O)C2=O [tanespimycin]
- Cell viability (DMSO αCD3/28 = 100) (PBMCs [1]; 5μM): 119.92 and 93.07 and 93.65 and 100.43 and 91.95 and 100.9 and 116.6
- LLTR/TAR ([2]; participant 150b): 1.555
- PolyA/LLTR ([2]; participant 150b): 0.0721
- TatRev/PolyA ([2]; participant 150b): 1.52
- LLTR/TAR ([2]; participant 1379): 1.931
- PolyA/LLTR ([2]; participant 1379): 0
- LLTR/TAR ([2]; participant 1713): 0.63
- PolyA/LLTR ([2]; participant 1713): 0.35
- LLTR/TAR ([2]; participant 2147b): 1.469
- PolyA/LLTR ([2]; participant 2147b): 0
- LLTR/TAR ([2]; participant 2256): 1.634
- PolyA/LLTR ([2]; participant 2256): 0.2174
- TatRev/PolyA ([2]; participant 2256): 3.43
- LLTR/TAR ([2]; participant 2750): 1.458
- PolyA/LLTR ([2]; participant 2750): 1.811
- TatRev/PolyA ([2]; participant 2750): 0
- LLTR/TAR ([2]; participant 5557): 1.09
- PolyA/LLTR ([2]; participant 5557): 0.1459
- TatRev/PolyA ([2]; participant 5557): 0
- Viability (Fig 1A) (PBMCs [3]; study participant 150b): 104.931 % of activated DMSO
- Viability (Fig 1A) (PBMCs [3]; study participant 2147b): 92.78 % of activated DMSO

SMILES: CC(C)[C@]12O[C@H]1[C@@H]1O[C@]13[C@]1(O[C@H]1C[C@H]1C4=C(CC[C@@]13C)C(=O)OC4)[C@@H]2O [triptolide]
- Cell viability (DMSO αCD3/28 = 100) (PBMCs [1]; 25-50nM): 81.87 and 92.51 and 90.83 and 106.88 and 80.32 and 104.1
- LLTR/TAR ([2]; participant 150b): 0.3514
- LLTR/TAR ([2]; participant 2147b): 1.135
- LLTR/TAR ([2]; participant 2750): 14.8232
- Cell viability (in words) (PBMCs [3]; initial screening concentrations, Figure 1A): impact on cell viability
- Viability (Fig 1A) (PBMCs [3]; study participant 150b): 96.4057 % of activated DMSO
- Viability (Fig 1A) (PBMCs [3]; study participant 2147b): 91.51 % of activated DMSO
